Earlier results, collected in patent US20080031898A1, “Compositions and methods to increase the effect of a neurotoxin treatment” (priority 2004, published 2008).

Tested on: BRAF(V600E) mutant xenografts
Conditions: Solit et al, Nature 2006

O=C(NOC[C@H](O)CO)c1ccc(F)c(F)c1Nc1ccc(I)cc1F [PD0325901]
suppression of xenograft growth: completely suppresses the growth
